# Measurements from patent US5250679A, “Nonpeptidyl platelet aggregation inhibitors having specificity for the GPIIb III receptor” (Genentech, Inc., priority 1992, dated 1993).
# Counter-ions that a name gives are not always drawn.
# Target: T1, GP IIb IIIa (Homo sapiens, UniProt P05106+P08514)
# T1 construct: from tissue; host or cells: outdated human platelets
# Assay: Fibrinogen-GP IIb IIIa Receptor ELISA Binding Assay (Fg/IIbIIIa)
# Conditions: Example 29, Cmpd # 1-105; read-out: IC50 Fg/IIbI
# Protocol: Briefly, microtiter plates are coated with fibrinogen (10 mg/ml) and then blocked with TACTS buffer containing 0.5% bovine serum albumin (BSA). […] After another wash a goat anti-mouse IgG conjugated to horseradish peroxidase is added. […] The reaction is stopped with 1N sulfuric acid and the absorbance at 492 nm is recorded. […] Outdated human platelets are washed 3 times with 10 mM tris-HCl, 150 mM NaCl (TBS), 1 mM EDTA, pH 7.5, and centrifuged at 2000×g to pellet cells. […] The supernatant fraction is collected and the supernatant is loaded onto a concanavalin-A column, previously equilibrated in TBS, 1 mM Ca2 Cl2, 0.1% Triton, 0.05% NaN3 and eluted with 0.2M a-methylmannoside. Fractions are pooled and loaded onto a heparin-agarose column. The flowthrough is collected and concentrated on an Amicon YM 30 filter to a volume of approximately 5-10 ml. The concentrate is then applied to an S-300 column (500 ml) and 6 ml fractions are collected. The GP IIb IIIa containing fractions are collected, pooled, and stored at -80° C. […] The precipitate is spun down in appropriate size bottles at 2000×g. The supernatant is decanted and the precipitate resuspended in 150 mM NaCl (approximately 50% of the original volume). […] The suspension is spun down and the precipitate is resuspended in Tris-saline in a minimal volume (approximately 5% of the original volume). Any remaining insoluble material is spun down at 2000 rpm in a Sorval type centrifuge and the fibrinogen supernatant is decanted and dialyzed overnight at 4° C. against Tris-saline. Characterization of the fibrinogen is by the Bradford protein assay, SDS-PAGE, and/or Western blotting using well known standard procedures. Briefly, 96 well plates are coated (Type Nunc 1 MaxisorpTM) with 10 mg/ml purified fibrinogen ([…]), and allowed to stand overnight at 4° C. […] The plates are again washed three times with PBS/Tween and then […] of sample in TNCNT is added. The mixture is incubated for 15 minutes at room temperature on a plate shaker. […] Fifty ml of this diluted GP IIb IIIa is then added to each well and incubated on a plate shaker at room temperature. After one hour, the plates are washed four times with PBS/Tween and 100 ml of a polyclonal or monoclonal antibody specific for GP IIIa such as AP3 (1 mg/ml) (See e.g. […] After a one hour incubation at room temperature on a plate shaker, the samples are washed 4 times with PBS/Tween. […] The color develops within about 3 to 20 minutes and the reaction is stopped with 100 ml 1M H2 SO4. The optical density at 492 nm vs 405 nm is recorded and IC50 values are determined.
# T1 sequence (P08514 32-887 limits assumed): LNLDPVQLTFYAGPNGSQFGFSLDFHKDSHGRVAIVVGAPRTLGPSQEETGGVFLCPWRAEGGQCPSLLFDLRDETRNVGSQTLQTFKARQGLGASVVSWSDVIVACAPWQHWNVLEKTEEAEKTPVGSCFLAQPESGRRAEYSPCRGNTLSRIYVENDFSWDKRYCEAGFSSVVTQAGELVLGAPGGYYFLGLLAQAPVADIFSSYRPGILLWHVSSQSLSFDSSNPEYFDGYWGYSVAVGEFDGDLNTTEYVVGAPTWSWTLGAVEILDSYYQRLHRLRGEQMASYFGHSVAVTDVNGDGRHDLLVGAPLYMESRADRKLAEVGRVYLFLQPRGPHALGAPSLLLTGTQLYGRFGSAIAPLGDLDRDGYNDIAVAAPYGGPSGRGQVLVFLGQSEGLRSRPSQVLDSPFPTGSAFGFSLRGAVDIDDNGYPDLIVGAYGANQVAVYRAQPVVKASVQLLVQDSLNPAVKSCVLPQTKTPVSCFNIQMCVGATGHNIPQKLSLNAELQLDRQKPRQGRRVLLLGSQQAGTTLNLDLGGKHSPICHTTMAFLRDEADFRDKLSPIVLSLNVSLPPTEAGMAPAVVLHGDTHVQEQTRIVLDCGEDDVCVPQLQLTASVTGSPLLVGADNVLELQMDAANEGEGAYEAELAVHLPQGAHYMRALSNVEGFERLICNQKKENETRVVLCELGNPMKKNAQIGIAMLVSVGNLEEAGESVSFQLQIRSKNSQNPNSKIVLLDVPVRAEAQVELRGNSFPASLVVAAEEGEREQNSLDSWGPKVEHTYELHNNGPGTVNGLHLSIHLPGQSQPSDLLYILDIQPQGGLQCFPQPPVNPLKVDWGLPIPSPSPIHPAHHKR
# T1 sequence (P08514 891-1039 partner limits assumed): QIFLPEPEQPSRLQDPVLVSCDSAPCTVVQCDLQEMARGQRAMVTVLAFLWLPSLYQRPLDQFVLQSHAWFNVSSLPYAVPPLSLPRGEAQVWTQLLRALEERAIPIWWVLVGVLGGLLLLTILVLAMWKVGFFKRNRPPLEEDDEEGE
# T1 sequence (P05106 27-788): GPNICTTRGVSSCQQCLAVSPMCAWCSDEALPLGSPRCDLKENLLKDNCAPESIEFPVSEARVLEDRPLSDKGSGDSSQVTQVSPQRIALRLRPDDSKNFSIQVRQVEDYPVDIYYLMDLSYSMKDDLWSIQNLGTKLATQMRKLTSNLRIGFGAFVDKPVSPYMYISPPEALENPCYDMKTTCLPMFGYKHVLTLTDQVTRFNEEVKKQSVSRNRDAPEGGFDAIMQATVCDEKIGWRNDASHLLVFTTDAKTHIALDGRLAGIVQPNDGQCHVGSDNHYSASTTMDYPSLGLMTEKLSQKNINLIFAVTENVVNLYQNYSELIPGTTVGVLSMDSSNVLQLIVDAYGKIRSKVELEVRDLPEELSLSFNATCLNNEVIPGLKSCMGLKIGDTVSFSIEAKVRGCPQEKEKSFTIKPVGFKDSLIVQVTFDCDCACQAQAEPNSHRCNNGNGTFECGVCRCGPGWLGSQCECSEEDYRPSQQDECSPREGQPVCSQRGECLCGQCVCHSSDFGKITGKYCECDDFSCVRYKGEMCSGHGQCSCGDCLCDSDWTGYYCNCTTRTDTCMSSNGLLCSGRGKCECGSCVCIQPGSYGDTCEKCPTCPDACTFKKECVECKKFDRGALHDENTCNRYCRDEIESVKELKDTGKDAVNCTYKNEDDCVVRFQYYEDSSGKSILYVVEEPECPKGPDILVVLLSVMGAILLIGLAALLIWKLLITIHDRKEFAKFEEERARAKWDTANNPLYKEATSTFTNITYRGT
row,SMILES,IC50 [µM]
1,N=C(N)NCCCCCCCc1ccc2c(c1)C(=O)N(CCC(=O)O)CC(=O)N2Cc1ccc(Cl)cc1 [Cmpd 67],0.2
2,"N=C(N)NCCCCCCc1ccc2c(c1)C(=O)N(CCC(=O)O)CC(=O)N2Cc1cccc(Oc2ccccc2)c1 [Cmpd 91, 1-(m-phenoxybenzyl)-4-(2-carboxyethyl)-7-(6-guanidinohexyl)-3,4-dihydro-1H-1,4-benzodiazepine-2,5-dione trifluoroacetate]",0.009
3,"NCCCCCCc1ccc2c(c1)C(=O)N(CCC(=O)O)CC(=O)N2Cc1ccc(F)cc1F [Cmpd 103, 1-(2,4-difluorophenyl)methyl-4-(2-carboxyethyl)-7-(6-aminohexyl)-3,4-dihydro-1H-1,4-benzodiazapine-2,5-dione]",0.021
4,CN1C(=O)CN(CCC(=O)O)C(=O)c2cc(CCc3ccc(CN)cc3)ccc21 [Cmpd 45],0.085
5,CN1C(=O)CN(CCC(=O)O)C(=O)c2cc(CCCN)ccc21 [Cmpd 3],28
6,"NCCCCCc1ccc2c(c1)C(=O)N(CCC(=O)O)CC(=O)N2Cc1cccc(Oc2ccccc2)c1 [Cmpd 95, 1-(m-phenoxybenzyl)-4-(2-carboxyethyl)-7-(5-aminopentyl)-3,4-dihydro-1H-1,4-benzodiazepine-2,5-dione trifluoroacetate]",0.108
7,CC1C(=O)N(C)c2ccc(CCCN)cc2C(=O)N1CCC(=O)O (stereo not shown) [Cmpd 7],30
8,NCCCCCc1ccc2c(c1)C(=O)N(CCC(=O)O)CC(=O)N2 [Cmpd 29],2.92
9,"NCCCCCCc1ccc2c(c1)C(=O)N(CCC(=O)O)CC(=O)N2Cc1cccc(Oc2ccccc2)c1 [Cmpd 94, 1-(m-phenoxybenzyl)-4-(2-carboxyethyl)-7-(6-aminohexyl)-3,4-dihydro-1H-1,4-benzodiazepine-2,5-dione trifluoroacetate]",0.009
10,"COc1ccc(CN2C(=O)CN(CCC(=O)O)C(=O)c3cc(CCCCCN)ccc32)cc1 [Cmpd 80, 1-(p-methoxybenzyl)-4-(2-carboxyethyl)-7-(5-aminopentyl)-3,4-dihydro-1H-1,4-benzodiazepine-2,5-dione trifluoroacetate]",0.16
11,CN1C(=O)C2CCC(CC(=O)O)N2C(=O)c2cc(CCCN)ccc21 (stereo not shown) [Cmpd 15],> 100
12,"NCCCCCc1ccc2c(c1)C(=O)N(CCC(=O)O)CC(=O)N2Cc1ccc(C(F)(F)F)cc1 [Cmpd 96, 1-(p-trifluoromethylbenzyl)-4-(2-carboxyethyl)-7-(5-aminopentyl)-3,4-dihydro-1H-1,4-benzodiazepine-2,5-dione trifluoroacetate]",0.186
13,N=C(N)NCCCCCc1ccc2c(c1)C(=O)N(CCC(=O)O)CC(=O)N2Cc1ccc(F)cc1F [Cmpd 102],0.016
14,"NCCCCCCc1ccc2c(c1)C(=O)N(CCC(=O)O)CC(=O)N2Cc1ccc(C(F)(F)F)cc1 [Cmpd 90, 1-(p-trifluoromethylbenzyl)-4-(2-carboxyethyl)-7-(6-aminohexyl)-3,4-dihydro-1H-1,4-benzodiazepine-2,5-dione trifluoroacetate]",0.005
15,CN1C(=O)C(c2ccccc2)N(CCC(=O)O)C(=O)c2cc(C#CCN)ccc21 (stereo not shown) [Cmpd 13],> 1000
16,"COc1ccc(CN2C(=O)CN(CCC(=O)O)C(=O)c3cc(CCCCCNC(=N)N)ccc32)cc1 [Cmpd 79, 1-(p-methoxybenzyl)-4-(2-carboxyethyl)-7-(5-guanidinopentyl)-3,4-dihydro-1H-1,4-benzodiazepine-2,5-dione trifluoroacetate]",0.011
17,N=C(N)NCCCCCCc1ccc2c(c1)C(=O)N(CCC(=O)O)CC(=O)N2Cc1ccc(Cl)cc1 [Cmpd 65],0.05
18,CN1C(=O)CN(C(CC(=O)O)c2ccccc2)C(=O)c2cc(CCCCCCNC(=N)N)ccc21 (stereo not shown) [Cmpd 52],0.39
19,CN1C(=O)C(c2ccccc2)N(CCC(=O)O)C(=O)c2cc(CCCNC(=N)N)ccc21 (stereo not shown) [Cmpd 12],2.3
20,CN1C(=O)CN(CCC(=O)O)C(=O)c2cc(C#Cc3cccc(N)c3)ccc21 [Cmpd 49],6
21,CN1C(=O)CN(CCC(=O)O)C(=O)c2cc(CCCCCCN)ccc21 [Cmpd 39],0.07

# Second part, the compound after the results:
row,IC50 [µM],SMILES
1,70,CC1C(=O)N(C)c2ccc(C#CCN)cc2C(=O)N1CCC(=O)O (stereo not shown) [Cmpd 9]
2,1.43,NCCCC#Cc1ccc2c(c1)C(=O)N(CCC(=O)O)CC(=O)N2 [Cmpd 31]
3,0.024,N=C(N)NCCCC#Cc1ccc2c(c1)C(=O)N(CCC(=O)O)CC(=O)N2Cc1ccc(F)cc1F [Cmpd 98]
4,> 100,CN1C(=O)C2CCC(CC(=O)O)N2C(=O)c2cc(CCCNC(=N)N)ccc21 (stereo not shown) [Cmpd 16]
5,0.025,N=C(N)NCCCCC#Cc1ccc2c(c1)C(=O)N(CCC(=O)O)CC(=O)N2Cc1ccc(F)cc1F [Cmpd 100]
6,0.043,N=C(N)NCCCCC#Cc1ccc2c(c1)C(=O)N(CCC(=O)O)CC(=O)N2Cc1ccc(Cl)cc1 [Cmpd 61]
7,0.1,CN1C(=O)CN(C(CC(=O)O)c2ccccc2)C(=O)c2cc(C#CCCCCNC(=N)N)ccc21 (stereo not shown) [Cmpd 54]
8,0.009,N=C(N)NCCCC#Cc1ccc2c(c1)C(=O)N(CCC(=O)O)CC(=O)N2Cc1ccc(Cl)cc1 [Cmpd 59]
9,6,CN1C(=O)CN(CCC(=O)O)C(=O)c2cc(C#CCCN)ccc21 [Cmpd 21]
10,0.204,N=C(N)NCCCCCc1ccc2c(c1)C(=O)N(CCC(=O)O)CC(=O)N2 [Cmpd 30]
11,30,CC1C(=O)N(C)c2ccc(C#CCNC(=N)N)cc2C(=O)N1CCC(=O)O (stereo not shown) [Cmpd 10]
12,100,CC1C(=O)N(C)c2ccc(CCCCNC(=N)N)cc2C(=O)N1CCC(=O)O (stereo not shown) [Cmpd 24]
13,0.13,NCCCC#Cc1ccc2c(c1)C(=O)N(CCC(=O)O)CC(=O)N2Cc1ccc(F)cc1F [Cmpd 97]

# Same assay, conditions: Examples 29 and 30, Cmpd # tables; read-out: IC50 (μM) Fg/IIbIIIa
row,SMILES,IC50 [µM]
1,N=C(N)NCCCCCCc1ccc2c(c1)C(=O)N(CCC(=O)O)CC(=O)N2Cc1cccc(CCCCNC(=N)N)c1 [Cmpd 121],0.02
2,NCCCCCCc1ccc2c(c1)C(=O)N(CCC(=O)O)CC(=O)N2Cc1ccc(NC(=O)CCN)cc1 [Cmpd 118],0.019

# The remaining lines, values ahead:
row,IC50 [µM],SMILES
1,20,"N=C(N)NCCCC#Cc1ccc2c(c1)C(=O)N(CCC(=O)O)CCC2 [Cmpd 154, 2-(2-carboxyethyl)-8-(5-guanidinopentynyl)-2,3,4,5-tetrahydro-1H-2-benzazepin-1-one trifluoroacetate]"
2,0.069,CN1C(=O)CN(CCC(=O)O)C(=O)c2cc3cc(CCCCNC(=N)N)ccc3cc21 [Cmpd 140]
3,4,N=C(N)NCCCC#Cc1ccc2c(c1)C(=O)N(CCC(=O)O)CCO2 [Cmpd 145]
4,5.9,NCCCC#Cc1ccc2c(c1)C(=O)N(CCC(=O)O)CC(Cc1ccccc1)O2 (stereo not shown) [Cmpd 148]
5,> 100,"NCCCC#Cc1ccc2c(c1)C(=O)N(CCC(=O)O)CCC2 [Cmpd 153, 2-(2-carboxyethyl)-8-(5-aminopentynyl)-2,3,4,5-tetrahydro-1H-2-benzazepin-1-one trifluoroacetate]"
6,0.351,"CN1C(=O)CN(CCC(=O)O)C(=O)c2cc3cc(C#CCN)ccc3cc21 [Cmpd 137, 1-methyl-4-(2-carboxyethyl)-8-(3-amino-1-propynyl)-3,4-dihydro 1H-1,4-napthodiazepine-2,4-dione trifluoracetate]"
7,0.068,NCCCC#Cc1ccc2c(c1)C(=O)N(CCC(=O)O)CC(=O)N2Cc1cccc(NC(=O)CN)c1 [Cmpd 106]
8,3,N=C(N)NCCCCCc1ccc2c(c1)C(=O)N(CCC(=O)O)CCO2 [Cmpd 147]
9,0.014,N=C(N)NCCCCCc1ccc2c(c1)C(=O)N(CCC(=O)O)CC(=O)N2CCCCC(=O)O [Cmpd 131]
10,3.4,N=C(N)NCCCCC#Cc1cccc(C(=O)NCCC(=O)O)c1 [Cmpd 164]
11,1.01,N=C(N)NCCC#Cc1cccc(C(=O)NCCC(=O)O)c1 [Cmpd 160]
12,0.04,N=C(N)NCCCCCCc1ccc2c(c1)C(=O)N(CCC(=O)O)CC(=O)N2CCCCCNC(=N)N [Cmpd 126]
13,0.137,"N=C(N)c1ccc(COc2ccc3c(c2)C(=O)N(CCC(=O)O)CCC3)cc1 [Cmpd 157, 2-(2-carboxyethyl)-8-(4-amidinobenzyloxy)-2,3,4,5-tetrahydro-1H-2-benzazepin-1-one trifluoroacetate]"
14,0.019,N=C(N)NCCCCCCc1ccc2c(c1)C(=O)N(CCC(=O)O)CC(=O)N2Cc1ccc(C(=O)O)cc1 [Cmpd 134]
15,0.068,CN1C(=O)CN(CCC(=O)O)C(=O)c2cc3c(cc21)CCC(CCCNC(=N)N)C3 (stereo not shown) [Cmpd 142]
16,2.7,NCCCCC#Cc1cccc(C(=O)NCCC(=O)O)c1 [Cmpd 163]
